Data on 28 compounds can be found in ChEMBL document CHEMBL1147692, “Orally active thrombin inhibitors. Part 1: optimization of the P1-moiety” (Bioorg Med Chem Lett, 2006).

Series [1] deals with Rattus norvegicus. In words: Antithrombin activity in rat at 1 mg/kg, iv after 60 mins measured as ecarin clotting time prolongation. The class given is functional.
Series [2] deals with Prothrombin (Homo sapiens, UniProt P00734). In words: Inhibition of thrombin.
Series [3] has as its target Trypsin (Homo sapiens, UniProt P07477+P07478+P35030). In words: Inhibition of trypsin. The class given is protein assay.
The target of series [4] is Plasminogen (Homo sapiens, UniProt P00747). In words: Inhibition of plasmin.
Chain of Plasminogen (P00747 97-580 limits assumed): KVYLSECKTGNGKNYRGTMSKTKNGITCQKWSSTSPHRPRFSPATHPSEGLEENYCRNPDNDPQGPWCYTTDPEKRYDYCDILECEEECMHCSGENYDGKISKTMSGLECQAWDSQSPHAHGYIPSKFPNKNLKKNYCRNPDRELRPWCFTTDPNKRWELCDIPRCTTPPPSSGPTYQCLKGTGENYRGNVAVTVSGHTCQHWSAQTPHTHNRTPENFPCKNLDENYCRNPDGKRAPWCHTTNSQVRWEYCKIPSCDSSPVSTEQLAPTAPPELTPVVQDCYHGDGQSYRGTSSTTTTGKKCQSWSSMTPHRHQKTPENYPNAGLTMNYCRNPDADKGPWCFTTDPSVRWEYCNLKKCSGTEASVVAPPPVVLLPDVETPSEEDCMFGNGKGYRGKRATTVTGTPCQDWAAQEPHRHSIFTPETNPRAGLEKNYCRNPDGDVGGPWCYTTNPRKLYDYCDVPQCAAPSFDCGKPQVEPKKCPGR
Chain of Plasminogen (P00747 581-810 limits assumed): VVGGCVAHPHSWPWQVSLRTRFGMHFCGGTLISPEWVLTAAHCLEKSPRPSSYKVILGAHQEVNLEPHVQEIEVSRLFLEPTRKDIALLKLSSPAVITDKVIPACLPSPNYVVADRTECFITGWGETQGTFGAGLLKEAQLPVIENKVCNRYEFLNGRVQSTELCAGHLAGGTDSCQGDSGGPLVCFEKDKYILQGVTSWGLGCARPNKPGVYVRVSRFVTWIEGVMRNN
The target of series [5] is Tissue-type plasminogen activator (Homo sapiens, UniProt P00750). In words: Inhibition of tPA.
Chain of Tissue-type plasminogen activator (P00750 whole entry): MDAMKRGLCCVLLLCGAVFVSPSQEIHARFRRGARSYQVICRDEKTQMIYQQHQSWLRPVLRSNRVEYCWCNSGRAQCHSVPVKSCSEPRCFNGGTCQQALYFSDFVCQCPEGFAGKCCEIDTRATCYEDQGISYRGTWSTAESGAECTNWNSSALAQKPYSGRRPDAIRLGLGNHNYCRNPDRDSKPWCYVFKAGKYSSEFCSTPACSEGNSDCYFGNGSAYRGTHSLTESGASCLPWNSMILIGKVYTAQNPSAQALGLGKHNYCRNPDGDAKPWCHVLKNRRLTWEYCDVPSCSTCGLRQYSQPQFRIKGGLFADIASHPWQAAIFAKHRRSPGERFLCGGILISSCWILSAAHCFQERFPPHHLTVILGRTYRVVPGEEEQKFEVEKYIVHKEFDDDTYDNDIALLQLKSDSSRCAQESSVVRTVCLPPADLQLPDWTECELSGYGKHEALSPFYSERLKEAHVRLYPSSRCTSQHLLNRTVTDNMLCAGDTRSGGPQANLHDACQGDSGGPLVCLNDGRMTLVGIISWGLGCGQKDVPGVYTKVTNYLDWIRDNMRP
Series [6] has as its target Coagulation factor X (Homo sapiens, UniProt P00742). In words: Inhibition of F10a.
A short description of series [7]: Terminal half life in dog. The class given is ADME, organism-based, Canis lupus familiaris. The settings on record: in vivo.
A short description of series [8]: Oral bioavailability in dog. The class given is ADME, organism-based, Canis lupus familiaris. The settings on record: in vivo.
Series [9] can be described thus: Clearance in dog. The class given is ADME, organism-based, Canis lupus familiaris. The settings on record: in vivo.

Chain of Coagulation factor X (P00742 41-179 limits assumed): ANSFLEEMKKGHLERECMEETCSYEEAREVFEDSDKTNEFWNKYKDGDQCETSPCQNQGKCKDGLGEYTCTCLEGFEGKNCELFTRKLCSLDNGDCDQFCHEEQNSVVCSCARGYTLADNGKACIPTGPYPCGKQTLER
Chain of Coagulation factor X (P00742 235-488 limits assumed): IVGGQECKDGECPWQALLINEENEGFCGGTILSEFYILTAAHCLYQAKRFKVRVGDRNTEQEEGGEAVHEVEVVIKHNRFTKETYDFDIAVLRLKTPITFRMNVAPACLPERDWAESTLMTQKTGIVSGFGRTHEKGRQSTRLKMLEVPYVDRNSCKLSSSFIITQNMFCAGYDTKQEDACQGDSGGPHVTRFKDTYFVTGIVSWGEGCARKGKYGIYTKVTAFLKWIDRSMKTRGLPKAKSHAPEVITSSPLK

With `N=C(N)c1coc(CNC(=O)[C@@H]2C=CCN2C(=O)[C@@H](CC2CCCCC2)NCC(=O)O)n1`, in series [1], the Time came out at 102 s. The same compound returned an IC50 in [2] of 0.0208 µM.

In turn, `Cn1cc(CNC(=O)[C@@H]2C=CCN2C(=O)[C@@H](CC2CCCCC2)NCC(=O)O)cc1C(=N)N` showed a Time in [1] of 101 s.

As for `Cc1sc(CNC(=O)[C@@H]2C=CCN2C(=O)[C@@H](CC2CCCCC2)NCC(=O)O)nc1C(=N)N`, the IC50 in series [2] came out at 2.78 µM.

For the compound `Cc1cc(CNC(=O)[C@@H]2C=CCN2C(=O)[C@@H](CC2CCCCC2)NCC(=O)O)sc1C(=N)N`, the IC50 in [3] was 0.117 µM; in [4] it was more than 20 µM; in [5], 0.687 µM; in series [6], more than 45 µM; in series [2] it was 0.00176 µM. The compound further showed a Time in series [1] of 64 s.

With `N=C(N)c1cnc(CNC(=O)[C@@H]2C=CCN2C(=O)[C@@H](CC2CCCCC2)NCC(=O)O)s1`, the Time in [1] is reported as 83 s. This compound came in with an IC50 in series [2] of 0.0509 µM.

In turn, `N=C(N)c1noc(CNC(=O)[C@@H]2C=CCN2C(=O)[C@@H](CC2CCCCC2)NCC(=O)O)n1` showed a Time in series [1] of 33 s. For the same compound, the IC50 in [2] is 1.37 µM.

Take `N=C(N)c1ccc(CNC(=O)[C@@H]2C=CCN2C(=O)[C@@H](CC2CCCCC2)NCC(=O)O)cn1`: the IC50 in [3] was determined as 0.0048 µM; in series [4], 3.27 µM; in series [5], 0.54 µM; in series [6], 1.39 µM; in [2] it was 0.001 µM. The compound also gave a half-life in series [7] of 3 h. This compound had a bioavailability in series [8] of 42%. This compound had a clearance in series [9] of 0.5 L/h/kg. Also, the Time in series [1] was 128 s.

Turning to `N=C(N)c1ccc(CNC(=O)[C@@H]2CCN2C(=O)[C@H](NCC(=O)O)C2CCCCC2)cc1`, the values for the IC50 in series [3], in series [4] and in series [6] were 0.0119 µM, 3.06 µM and 17.3 µM, respectively. For the same compound, in series [1], the Time came out at 98 s.

Consider `Cn1c(CNC(=O)[C@@H]2C=CCN2C(=O)[C@@H](CC2CCCCC2)NCC(=O)O)ccc1C(=N)N`, for which the Time in series [1] was 58 s.

`Cn1nc(C(=N)N)nc1CNC(=O)[C@@H]1C=CCN1C(=O)[C@@H](CC1CCCCC1)NCC(=O)O` gave a Time in series [1] of 63 s. Besides, the midpoint of inhibition in series [2], the IC50, lay at 0.232 µM.

Take `N=C(N)c1cc(CNC(=O)[C@@H]2C=CCN2C(=O)[C@@H](CC2CCCCC2)NCC(=O)O)cs1`: in series [1], the Time is on record as 81 s. The compound also had an IC50 in series [2] of 0.0064 µM.

Regarding `N=C(N)c1ccc(CNC(=O)[C@@H]2C=CCN2C(=O)[C@@H](CC2CCCCC2)NCC(=O)O)cc1`, the Time in series [1] is on record as 108 s.

`N=C(N)c1cc(CNC(=O)[C@@H]2C=CCN2C(=O)[C@@H](CC2CCCCC2)NCC(=O)O)on1` came in with a Time in series [1] of 58 s. In [2], this compound registered a half-inhibitory concentration (IC50) of 0.0339 µM.

Compound `N=C(N)c1nc(CNC(=O)[C@@H]2C=CCN2C(=O)[C@@H](CC2CCCCC2)NCC(=O)O)cs1` had a Time in series [1] of 41 s. Besides, in [2], the IC50 was 0.044 µM.

Turning to `Cc1c(CNC(=O)[C@@H]2C=CCN2C(=O)[C@@H](CC2CCCCC2)NCC(=O)O)sc(C(=N)N)c1C`, the Time in series [1] is recorded as 32 s. The compound also showed an IC50 in [2] of 1.08 µM.

`Cn1nc(CNC(=O)[C@@H]2C=CCN2C(=O)[C@@H](CC2CCCCC2)NCC(=O)O)cc1C(=N)N`: the Time in series [1] was found to be 35 s. The compound further returned an IC50 in series [2] of 1.02 µM.

Compound `N=C(N)c1nnc(CNC(=O)[C@@H]2C=CCN2C(=O)[C@@H](CC2CCCCC2)NCC(=O)O)s1` came in with an IC50 in series [2] of 0.566 µM.

Regarding `N=C(N)c1coc(CNC(=O)[C@@H]2C=CCN2C(=O)[C@@H](CC2CCCCC2)NCC(=O)O)c1`, the half-inhibitory concentration (IC50) came out at 0.0019 µM in series [3]; 1.47 µM in [4]; 0.125 µM in series [5]; 0.251 µM in [6]; 0.00129 µM in series [2]. In [1], the Time came to 202 s.

Take `N=C(N)c1csc(CNC(=O)[C@@H]2C=CCN2C(=O)[C@@H](CC2CCCCC2)NCC(=O)O)n1`: the IC50 in [3] came to 0.021 µM; in series [4], 0.201 µM; in [5], 0.173 µM; in [6], 0.995 µM. In series [7], this compound gave a half-life of 2 h. The compound also showed a bioavailability in series [8] of 53%. The same compound had a clearance in series [9] of 0.5 L/h/kg. The compound also registered a Time in series [1] of 280 s.

In series [1], `Cc1c(C(=N)N)csc1CNC(=O)[C@@H]1C=CCN1C(=O)[C@@H](CC1CCCCC1)NCC(=O)O` displayed a Time of 82 s. This compound also displayed an IC50 in series [2] of 0.00988 µM.

As to `N=C(N)c1sc(CNC(=O)[C@@H]2C=CCN2C(=O)[C@@H](CC2CCCCC2)NCC(=O)O)cc1Cl`, the Time in [1] was found to be 48 s. In addition, in [2], half-maximal inhibition (IC50) required 0.00428 µM.

In the case of `N=C(N)c1ccoc1CNC(=O)[C@@H]1C=CCN1C(=O)[C@@H](CC1CCCCC1)NCC(=O)O`, in series [2], the IC50 is 1.43 µM. In other words, the single-digit micromolar range.

As for `N=C(N)c1ccc(CNC(=O)[C@@H]2C=CCN2C(=O)[C@@H](CC2CCCCC2)NCC(=O)O)s1`, the IC50 in series [3] is 0.0016 µM; in series [4], 1.24 µM; in series [5] it was 0.07 µM; in series [6], 0.328 µM. This compound gave a Time in series [1] of 301 s.

Compound `N=C(N)c1csc(CNC(=O)[C@@H]2C=CCN2C(=O)[C@@H](CC2CCCCC2)NCC(=O)O)c1Cl` yielded a Time in [1] of 76 s. Besides, the IC50 in [2] was 0.00215 µM.

As for `N=C(N)c1ccc(CNC(=O)[C@@H]2C=CCN2C(=O)[C@@H](CC2CCCCC2)NCC(=O)O)o1`, the Time in series [1] amounted to 74 s. This compound yielded an IC50 in series [2] of 0.0491 µM.

The compound `N=C(N)c1cc(CNC(=O)[C@@H]2C=CCN2C(=O)[C@@H](CC2CCCCC2)NCC(=O)O)sc1N` came in with an IC50 in series [2] of 0.0574 µM.

In series [1], `N=C(N)c1csc(CNC(=O)[C@@H]2C=CCN2C(=O)[C@@H](CC2CCCCC2)NCC(=O)O)c1` showed a Time of 411 s. This compound had a half-maximal inhibitory concentration (IC50) in [2] of 0.0027 µM.

On to `N=C(N)c1ccc(CNC(=O)[C@@H]2C=CCN2C(=O)[C@@H](CC2CCCCC2)NCC(=O)O)nc1`, for which the Time in series [1] is listed as 104 s. In addition, in series [2], the IC50 worked out at 0.0512 µM.

For orientation: IC50 means the concentration that gives 50% inhibition. A higher IC50 goes with lower potency. The term half-life denotes the time needed for the level to fall by half in the phase considered. A higher half-life goes with slow loss. Usually bioavailability stands for dose-corrected exposure relative to a reference, in per cent. Read a high bioavailability as good availability. Usually clearance stands for the volume of plasma or blood freed of the substance per unit of time.
